Experimental findings from patent US7056734B1, “Differentiation of non-insulin producing cells into insulin producing cells by GLP-1 or exendin-4 and uses thereof” (The United States of America as represented by the …, priority 1998, dated 2006) are described below.

In one data set the test system is pancreata. Description: Proliferation and differentiation of pancreatic cells after GLP-1 infusion or exendin-4 injection. Type of data set: in vivo, rat. The settings on record: for total number of insulin positive cells: GLP-1 continuous infusion or exendin-4 repeated ip injection for at least two days; for time of maximal differentiation effect: GLP-1 continuous infusion, exendin-4 daily bolus; for persistence of increased number of insulin producing cells after treatment is discontinued: rat, in vivo. The protocol: Exendin-4, in contrast, was administered intraperitoneally one time daily for five days according to the protocol of Example 2.

In a further data set the test system is diabetic mice. The experiment in a line: Preliminary ip and sc injections, duration of blood sugar lowering. In kind it is in vivo, mouse. The settings on record: for blood sugars 24 hours after ip and sc injections: preliminary experiments. The protocol:
Effects of chronic treatment with exendin-4 in mice. The biological activity of exendin-4, as measured by its ability to lower blood sugar, was much longer than we expected when given ip or subcutaneously to diabetic animals. […] This lead us to design a long-term experiment with exendin-4. At the initiation of the daily ip exendin-4 regimen in the mice fasting blood glucose was 145±51 mg/dl in the non-diabetic mice and 232±38 mg/dl in the diabetic mice. […] Glucose levels dropped to 90±11 mg/dl in the exendin-4-treated animals from 238±51 mg/dl (p<0.002) in the NaCl-treated animals (Table 1). We measured fasting insulin levels in the diabetic animals that received NaCl or exendin-4. They were higher in the animals that received exendin-4 (p<0.002). […] We surmised that the decreased urination in the exendin-4-treated diabetic mice was due to less osmotic diuresis because of lower blood glucose.
This was possibly due to greater variation in the sc technique and perhaps even loss of the peptide during injections in some cases.

The test system of a further data set is AR42J cells. Description: Amylase release from AR42J cells. Type of data set: cell-based, rat. The protocol: Cell Culture. AR42J cells were maintained in Dulbecco's modified Eagle's medium (Gibco, Grand Island, N.Y.) (DMEM) supplemented with 10% Fetal Calf Serum, 100 IU/ml penicillin, 100 μg/ml streptomycin and 2 mM glutamine. Cells from passage 23–36 were used throughout this study.
Amylase Assay. For amylase secretion, cells were washed free of medium with 2 ml phosphate buffered saline (PBS). Incubation was then carried out in DMEM containing 15 mM HEPES, 0.2% bovine serum albumin (BSA) and 0.01% soybean trypsin inhibitor. The hormones and reagents of interest were added for 50 min at 37° C. The incubation medium was then immediately removed for amylase determination and the cells were again washed in 2 ml ice-cold PBS. […] The released amylase was expressed as the percentage of the total amylase activity of the cells.

A further data set concerns islets of Langerhans. The experiment in a line: cAMP determinations in isolated islets. In kind it is cell-based, rat. The protocol:
cAMP determinations. Islets of Langerhans were harvested from Wistar rats (Perfetti et al., 1995) and batches of 25 islets were then incubated for 1 h at 37° C. in a buffer containing (mM) 140 NaCl, 5 KCl, 1 NaPO4 1 MgSO4, 5 glucose, 2 CaCl2, 20 HEPES, buffer (pH 7.4) and 0.1% bovine serum albumin. Following this, they were incubated in the same buffer for 1 h in the presence of GLP-1 (1 nM) or exendin-4 (1 nM). Some batches of islets were then washed three times with ice-cold phosphate buffer saline (PBS) and lysed with 1 ml ice-cold […] perchloric acid. Other batches were washed three times in the buffer at 37° C. to remove peptide and left another 15 min before being washed three times in ice-cold PBS followed by lysis with the perchloric acid. The lysates (950 μl) were then transferred to microcentrifuge tubes and cAMP measured as previously described (See Example 1) using a cAMP [^3H] assay kit (Amersham).

The next data set has as its system Wistar rats. Description: Intravenous bolus of exendin-4 or GLP-1, plasma insulin in fasted anesthetized rats. In kind it is in vivo, rat. Particulars: for time by which insulin levels return to baseline: 0.4 nmol/kg iv bolus; for urine output during the study: iv bolus, not quantitated. The protocol:
Protocols. Wistar rats were fasted overnight. Following anesthesia with 50 mg/kg pentobarbital, a catheter was placed in the femoral artery for blood sampling. A bolus of either exendin-4 or GLP-1 was given into the saphenous vein (iv) over 30 sec to 12 animals, while a bolus of normal saline (NaCl) was given to the other six. The order of the injections was rotated. Blood (taken at −5, 0, 2, 5, 15, 30, 60, 120, and 180 min) was drawn into heparinized tubes containing EDTA and aprotinin for insulin determination (See Example 1). Animals were acclimated to the facility for at least 2 days.
Assays. Plasma glucose was measured by the glucose oxidase method (Wang et al., 1997). Insulin was measured by RIA as previously described (See Example 1). Hb A1c was assayed using a BIO-RAD (Herculas Calif.) DiaSTAT machine which uses low pressure cation exchange chromatography in conjunction with gradient elution to separate hemoglobin subtypes and variants from hemolyzed blood. The separated hemoglobin fractions were monitored by means of absorption of light at 415 nm.
Statistical methods. All results are given as mean±SEM. T tests were based on the results of an F test that looked at the equality of variance of the two means. […] For determination of the EC50 the basal plasma insulin levels were subtracted and the remaining activity at each concentration was expressed as a percent of the maximal activity (achieved by an excess of peptide). This was then transformed into a logit format where logit=ln (% activity/[100-% activity]) and was plotted as a function of the log concentration of the compound.

Another data set deals with ERK. Description: MAP kinase (ERK) activity in AR42J cells. In kind it is cell-based, rat. The settings on record: 3 days; for ERK (MAP kinase) activity: GLP-1 10 nM, exendin-4 0.1 nM. The protocol:
MAP Kinase Activity. After treatment, 60 mm dishes of 80% confluent cells were lysed at 4° C. in lysis buffer (in mM): 50 TRIS-HCl, PH 8, 150 NaCl, 5 EDTA, 1% NP-40, 0.25% sodium deoxycholate, 1 NaF, 10 sodium pyrophosphate, 0.1 PMSF, 1 sodium orthovanadate, 20 μg/ml aprotinin, and 10 μg/ml leupeptin. The cell lysate was clarified by centrifugation at 16,000×g at 4° C. for 20 min. The clarified cell lysate was immunoprecipitated overnight at 4° C., rotating with 4.5 μg of ERK1-CT antibody and 40 μl of packed protein G+protein A agarose resin (Oncogene Research Product, Cambridge, Mass.). The immune pellet was assayed for MAPK activity using MBP as the substrate. MBP (18.6 μg) was phosphorylated at 20° C. for 10 min in a final volume of 60 μl containing 20 mM Hepes, PH 7.4, 10 mM MgCl2, 1 mM DTT, 20 uM unlabeled ATP and 40 μCi (3,000 Ci/mmol) [^32P]-ATP. The reaction was terminated by the addition of 25 μl of 3× Laemmli sample buffer and heating at 70° C. for 10 min. MAPK activity was assessed by SDS-PAGE and auto-radiography. The autoradiograms were quantified by densitometry.

Where two headings read alike, the source gives them in different places. Some results are limits rather than exact numbers.

As for `CC[C@H](C)[C@H](NC(=O)[C@H](Cc1ccccc1)NC(=O)[C@H](CCC(=O)O)NC(=O)[C@H](CCCCN)NC(=O)[C@H](C)NC(=O)[C@H](C)NC(=O)[C@H](CCC(N)=O)NC(=O)CNC(=O)[C@H](CCC(=O)O)NC(=O)[C@H](CC(C)C)NC(=O)[C@H](Cc1ccc(O)cc1)NC(=O)[C@H](CO)NC(=O)[C@H](CO)NC(=O)[C@@H](NC(=O)[C@H](CC(=O)O)NC(=O)[C@H](CO)NC(=O)[C@@H](NC(=O)[C@H](Cc1ccccc1)NC(=O)[C@@H](NC(=O)CNC(=O)[C@H](CCC(=O)O)NC(=O)[C@H](C)NC(=O)[C@@H](N)Cc1c[nH]cn1)[C@@H](C)O)[C@@H](C)O)C(C)C)C(=O)N[C@@H](C)C(=O)N[C@@H](Cc1c[nH]c2ccccc12)C(=O)N[C@@H](CC(C)C)C(=O)N[C@H](C(=O)N[C@@H](CCCCN)C(=O)NCC(=O)N[C@@H](CCCNC(=N)N)C(N)=O)C(C)C` [GLP-1], in the data set on pancreata, the “total number of insulin positive cells” value was “increase in total number of insulin positive cells”, the “time of maximal differentiation effect” value is reported as “seven days” and the “persistence of increased number of insulin producing cells after treatment is discontinued” value is “at least two weeks”. The “earliest time at which differentiation effect was observed” value with pancreata (continuous infusion) was 1 days. In addition, the “cells in treated pancreata positive for PCNA” value in the data set with pancreata (continuous infusion, five days) was “Approximately 20%”. For the same molecule, the “blood sugars 24 hours after ip and sc injections” value with diabetic mice was “back to baseline”. Moreover, the “effect on amylase release when given alone” value in the data set with AR42J cells (50 min, glucagon 10 or 100 nM, GLP-1 10 nM, insulin 100 nM, 8-Br-cAMP 100 nM, vanadate 1 mM) is recorded as “did not influence amylase release”. In addition, the “effect on CCK-induced amylase release” value in the data set with AR42J cells (combined with CCK (1 nM), genestein 300 μM, vanadate 1 mM) is on record as “did not influence amylase release”. Further, the “basal or CCK (1 nM)-induced amylase release after pre-incubation” value with AR42J cells (pre-incubation 8, 24, 48 or 72 h with GLP-1 (10 nM) and insulin (100 nM)) is listed as “did not increase”. In the data set with islets of Langerhans, the “cAMP levels 15 min after removal of peptide by three washes” value is “returned to baseline” and the “concentration of maximum cAMP response” value came to 1 nM. Moreover, in the data set with Wistar rats, the “time by which insulin levels return to baseline” value is at most 10 min and the “urine output during the study” value is “urinated little if any”. Also, in the data set with ERK, the “ERK (MAP kinase) activity” value is “markedly increased”.
As for exendin-4, in the data set on pancreata, the “total number of insulin positive cells” value was “increase in total number of insulin positive cells”, the “time of maximal differentiation effect” value is recorded as “seven days” and the “persistence of increased number of insulin producing cells after treatment is discontinued” value is “at least two weeks”. Moreover, in the data set with diabetic mice, the “duration of lower blood sugars after an ip dose” value is “up to 24 hours”; the “blood sugars 24 hours after ip and sc injections” value is listed as “lower blood sugars”. The “effect on amylase release when given alone” value with AR42J cells was “did not appear to influence amylase release”. Also, the “cAMP levels 15 min after removal of peptide by three washes” value in the data set on islets of Langerhans was “returned to baseline”. Further, the “cAMP levels relative to GLP-1” value with islets of Langerhans (1 nM, 1 h) is listed as “approximately 3 fold”. Moreover, in the data set on Wistar rats (0.4 nmol/kg iv), the “maximal insulin response compared with GLP-1” value is “approximately doubled”. For the same molecule, in the data set on Wistar rats, the “time by which insulin levels return to baseline” value is given as at most 60 min and the “urine output during the study” value is on record as “obvious increase in urine output”. Further, in the data set with ERK, the “potency on ERK activation relative to GLP-1” value is “about 100 fold” and the “ERK (MAP kinase) activity” value is reported as “markedly increased”.
